Entries after “also recorded” stand apart in the source; their conditions may differ.
Test system: adhesion of bacteria
Assay: Anti-adhesion assay (not further specified)
Type: cell-based
Source text: Further, quercetin and myricetin, which both share the catechin or epicatechin-like nucleus with leucocyanins but have R^2=H or OH, have been tested in the anti-adhesion assay and show no activity. […] Further, as described previously herein, one of the anti-adhesion assays described herein compares the ability of a substance to inhibit binding relative to mannose inhibition of such adhesion, and it is therefore believed that a carbohydrate moiety is involved in conferring anti-adhesion activity.

With `O=c1c(O)c(-c2ccc(O)c(O)c2)oc2cc(O)cc(O)c12` [quercetin] the anti-adhesion activity was “no activity”.
In the case of myricetin-3-pyranoside, the anti-adhesion activity is reported as “some anti-adhesion activity; also recorded: does have anti-adhesion activity”.
For `O=c1c(O)c(-c2cc(O)c(O)c(O)c2)oc2cc(O)cc(O)c12` [myricetin], the anti-adhesion activity was “no activity”.

— patent publication US6440471B2, “Plant proanthocyanidin extracts” (JLB, Inc., priority 1999, dated 2002)
